According to publication PMC9403976, “Elucidating the path to Plasmodium prolyl-tRNA synthetase inhibitors that overcome halofuginone resistance” (Nature Communications, 2022):
Values joined by “and” are separate entries in the source; they are usually repeats but may differ in a detail not shown here. Equal values may be shown once. Read-outs that look alike come from different tables or passages of the source.

Tests used:
P. falciparum Dd2-2D4 = assay: P. falciparum asexual blood stage (ABS) growth assay, SYBR Green, 72 h, wild-type parasites; type: cell-based, Plasmodium falciparum; conditions: Plasmodium falciparum, DD2; SI Fig 16b; values on -log scale; read-out: ABS - Dd2-2D4 (converted)
PfcProRS = biological target: T1, PfcProRS (Plasmodium falciparum, UniProt Q8I5R7); type: binding; conditions: for dose-response signal (normalized), SI Fig 8: single replicates
T1 construct: made in house; host or cells: E. coli SoluBL-21

HsProRS = HsProRS (Homo sapiens, UniProt P07814); assay: TR-FRET ligand displacement assay with tracer MAT379 (CoraFluor-1-Halo and anti-His6 antibody formats); type: binding; set-up: made in house; host or cells: E. coli SoluBL-21; conditions: for TR-FRET dose-response, normalized signal (SI Fig 11): individual replicates
Sequence of HsProRS (P07814 996-1512): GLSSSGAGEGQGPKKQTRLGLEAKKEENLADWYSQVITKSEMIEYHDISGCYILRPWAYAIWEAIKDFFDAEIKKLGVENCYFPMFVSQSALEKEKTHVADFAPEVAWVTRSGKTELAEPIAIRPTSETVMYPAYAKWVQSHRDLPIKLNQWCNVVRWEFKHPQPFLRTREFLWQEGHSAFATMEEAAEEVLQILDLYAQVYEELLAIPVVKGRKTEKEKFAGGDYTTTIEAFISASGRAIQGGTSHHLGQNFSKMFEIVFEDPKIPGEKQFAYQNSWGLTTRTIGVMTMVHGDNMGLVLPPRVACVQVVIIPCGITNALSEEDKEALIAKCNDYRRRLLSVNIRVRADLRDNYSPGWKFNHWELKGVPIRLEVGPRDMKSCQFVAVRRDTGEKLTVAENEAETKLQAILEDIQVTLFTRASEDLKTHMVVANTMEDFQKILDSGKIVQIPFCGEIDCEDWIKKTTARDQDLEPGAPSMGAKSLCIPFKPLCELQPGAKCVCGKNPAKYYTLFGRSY

T1 sequence (Q8I5R7 249-746): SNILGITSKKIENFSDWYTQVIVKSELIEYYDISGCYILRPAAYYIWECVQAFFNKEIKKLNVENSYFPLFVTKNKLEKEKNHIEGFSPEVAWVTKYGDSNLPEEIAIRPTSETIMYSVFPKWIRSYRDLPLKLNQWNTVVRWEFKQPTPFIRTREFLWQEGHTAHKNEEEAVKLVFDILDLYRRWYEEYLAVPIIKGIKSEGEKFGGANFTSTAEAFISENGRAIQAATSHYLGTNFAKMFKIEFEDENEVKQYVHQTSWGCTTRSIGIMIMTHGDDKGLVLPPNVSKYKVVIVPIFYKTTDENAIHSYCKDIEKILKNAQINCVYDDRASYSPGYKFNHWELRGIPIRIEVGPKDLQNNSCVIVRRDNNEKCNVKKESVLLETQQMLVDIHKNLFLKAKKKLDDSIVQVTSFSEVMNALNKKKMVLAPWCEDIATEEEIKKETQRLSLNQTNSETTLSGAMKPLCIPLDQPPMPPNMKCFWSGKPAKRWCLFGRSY

## NC1(C(=O)Nc2nccnc2C(=O)NC2Cc3ccccc3C2)CCCCC1 [compound 17]
P. falciparum Dd2-2D4
  EC50: 5.79 µM
PfcProRS; Log[inhibitor] (M) -5.000
  dose-response signal (normalized), SI Fig 8: -2.16E-02 and 3.35E-02 and 3.85E-02
PfcProRS; Log[inhibitor] (M) -5.301
  dose-response signal (normalized), SI Fig 8: 9.18E-02 and 6.95E-02 and 1.07E-01
PfcProRS; Log[inhibitor] (M) -5.601
  dose-response signal (normalized), SI Fig 8: 1.19E-01 and 1.25E-01 and 1.05E-01
PfcProRS; Log[inhibitor] (M) -5.904
  dose-response signal (normalized), SI Fig 8: 2.12E-01 and 2.21E-01 and 2.19E-01
PfcProRS; Log[inhibitor] (M) -6.208
  dose-response signal (normalized), SI Fig 8: 4.81E-01 and 4.00E-01 and 5.13E-01
PfcProRS; Log[inhibitor] (M) -6.509
  dose-response signal (normalized), SI Fig 8: 7.01E-01 and 7.64E-01 and 7.83E-01
PfcProRS; Log[inhibitor] (M) -6.796
  dose-response signal (normalized), SI Fig 8: 9.36E-01 and 8.53E-01 and 9.43E-01
PfcProRS; Log[inhibitor] (M) -7.108
  dose-response signal (normalized), SI Fig 8: 1.01E+00 and 9.81E-01 and 1.06E+00
PfcProRS; Log[inhibitor] (M) -7.409
  dose-response signal (normalized), SI Fig 8: 1.04E+00 and 9.85E-01 and 1.08E+00
PfcProRS; Log[inhibitor] (M) -7.710
  dose-response signal (normalized), SI Fig 8: 9.36E-01 and 1.05E+00 and 9.73E-01
PfcProRS; Log[inhibitor] (M) -8.000
  dose-response signal (normalized), SI Fig 8: 9.16E-01 and 9.94E-01 and 1.09E+00
PfcProRS; Log[inhibitor] (M) -8.301
  dose-response signal (normalized), SI Fig 8: 1.01E+00 and 9.14E-01 and 9.61E-01
PfcProRS; Log[inhibitor] (M) -8.602
  dose-response signal (normalized), SI Fig 8: 9.67E-01 and 1.05E+00 and 9.29E-01
PfcProRS; Log[inhibitor] (M) -9.000
  dose-response signal (normalized), SI Fig 8: 9.54E-01 and 9.96E-01 and 9.84E-01
PfcProRS; Log[inhibitor] (M) -9.301
  dose-response signal (normalized), SI Fig 8: 9.59E-01 and 9.29E-01 and 9.60E-01
PfcProRS; SI Fig 16a, values on -log scale
  PfcProRS -- best Kd: 6.883
HsProRS; HsProRS (KD [nM]) mean, no added proline/ATP (-)
  Kd: 4430 nM
HsProRS; HsProRS - best Kd, SI Fig 16a, values on -log scale
  Kd: 25.5 nM
HsProRS; Log[inhibitor] (M) -5.000
  normalized TR-FRET ligand displacement signal, dose-response replicates (SI Fig 6): 2.29E-01 and 2.88E-01 and 2.34E-01
  TR-FRET dose-response, normalized signal (SI Fig 11): 3.10E-01 and 3.50E-01 and 2.83E-01
HsProRS; Log[inhibitor] (M) -5.301
  normalized TR-FRET ligand displacement signal, dose-response replicates (SI Fig 6): 4.79E-01 and 4.33E-01 and 5.59E-01
  TR-FRET dose-response, normalized signal (SI Fig 11): 5.37E-01 (2×) and 4.61E-01
HsProRS; Log[inhibitor] (M) -5.601
  normalized TR-FRET ligand displacement signal, dose-response replicates (SI Fig 6): 7.03E-01 and 7.28E-01 and 7.31E-01
  TR-FRET dose-response, normalized signal (SI Fig 11): 6.81E-01 and 6.32E-01 and 7.28E-01
HsProRS; Log[inhibitor] (M) -5.904
  normalized TR-FRET ligand displacement signal, dose-response replicates (SI Fig 6): 9.55E-01 and 9.39E-01 and 8.52E-01
  TR-FRET dose-response, normalized signal (SI Fig 11): 7.93E-01 and 8.32E-01 and 8.75E-01
HsProRS; Log[inhibitor] (M) -6.208
  normalized TR-FRET ligand displacement signal, dose-response replicates (SI Fig 6): 9.44E-01 and 9.23E-01 and 8.86E-01
  TR-FRET dose-response, normalized signal (SI Fig 11): 9.35E-01 and 8.64E-01 and 9.27E-01
HsProRS; Log[inhibitor] (M) -6.509
  normalized TR-FRET ligand displacement signal, dose-response replicates (SI Fig 6): 9.47E-01 and 9.84E-01 and 9.68E-01
  TR-FRET dose-response, normalized signal (SI Fig 11): 8.93E-01 and 9.27E-01 and 9.36E-01
HsProRS; Log[inhibitor] (M) -6.796
  normalized TR-FRET ligand displacement signal, dose-response replicates (SI Fig 6): 9.18E-01 and 9.88E-01 and 9.43E-01
  TR-FRET dose-response, normalized signal (SI Fig 11): 9.97E-01 and 9.65E-01 and 9.84E-01
HsProRS; Log[inhibitor] (M) -7.108
  normalized TR-FRET ligand displacement signal, dose-response replicates (SI Fig 6): 9.90E-01 and 9.75E-01 and 9.07E-01
  TR-FRET dose-response, normalized signal (SI Fig 11): 9.67E-01 and 9.70E-01 and 9.86E-01
HsProRS; Log[inhibitor] (M) -7.409
  normalized TR-FRET ligand displacement signal, dose-response replicates (SI Fig 6): 1.03E+00 and 1.00E+00 and 1.02E+00
  TR-FRET dose-response, normalized signal (SI Fig 11): 9.20E-01 and 9.49E-01 and 9.94E-01
HsProRS; Log[inhibitor] (M) -7.710
  normalized TR-FRET ligand displacement signal, dose-response replicates (SI Fig 6): 1.02E+00 and 9.03E-01 and 1.03E+00
  TR-FRET dose-response, normalized signal (SI Fig 11): 9.99E-01 and 9.64E-01 and 1.05E+00
HsProRS; Log[inhibitor] (M) -8.000
  normalized TR-FRET ligand displacement signal, dose-response replicates (SI Fig 6): 1.01E+00 and 9.27E-01 and 9.75E-01
  TR-FRET dose-response, normalized signal (SI Fig 11): 1.01E+00 and 9.57E-01 and 9.53E-01
HsProRS; Log[inhibitor] (M) -8.301
  normalized TR-FRET ligand displacement signal, dose-response replicates (SI Fig 6): 1.01E+00 and 1.00E+00 and 1.05E+00
  TR-FRET dose-response, normalized signal (SI Fig 11): 9.70E-01 and 9.81E-01 and 1.01E+00
HsProRS; Log[inhibitor] (M) -8.602
  normalized TR-FRET ligand displacement signal, dose-response replicates (SI Fig 6): 9.94E-01 and 1.05E+00 and 1.03E+00
  TR-FRET dose-response, normalized signal (SI Fig 11): 9.48E-01 and 9.63E-01 and 9.29E-01
HsProRS; Log[inhibitor] (M) -9.000
  normalized TR-FRET ligand displacement signal, dose-response replicates (SI Fig 6): 9.41E-01 and 1.01E+00 and 9.67E-01
  TR-FRET dose-response, normalized signal (SI Fig 11): 9.46E-01 and 9.80E-01 and 9.64E-01
HsProRS; Log[inhibitor] (M) -9.301
  normalized TR-FRET ligand displacement signal, dose-response replicates (SI Fig 6): 1.02E+00 and 9.62E-01 and 8.95E-01
  TR-FRET dose-response, normalized signal (SI Fig 11): 9.77E-01 (2×) and 9.15E-01
